Tests used:
[1] = cancer patients, QS-21 dose 100~200 μg, cited from earlier work
[2] = Toxicology studies of the present product; conditions: poly (I:C) adsorbed onto the mixed liposomes
Excerpt: In order to maintain stability of physical properties of products, the mixed liposomes containing the cationic liposomes and the neutral liposomes (consisting of […]) were chosen in the present disclosure to adsorb poly (I:C). Poly (I:C) adsorbed by the intramuscular administered mixed liposomes could be passively or actively delivered to antigen presenting cells (APCs), to limit its interaction with non-phagocytic cells, and regulate systemic secretion of cytokines generated thereby.

For `CCC(C)C(CC(O)CC(=O)O[C@@H]1[C@H](O)[C@H](C)O[C@H](OC(=O)[C@@H]2CC(C)(C)C[C@@H]3C4=CCC5[C@@]6(C)CC[C@H](O[C@@H]7O[C@H](C(=O)O)[C@@H](O)[C@H](O[C@H]8OC[C@@H](O)[C@H](O)[C@H]8O)[C@H]7O[C@@H]7O[C@H](CO)[C@H](O)[C@H](O)[C@H]7O)[C@@](C)(C=O)[C@@H]6CC[C@@]5(C)[C@]4(C)C[C@@H](O)C32)[C@H]1O[C@@H]1O[C@@H](C)[C@H](O[C@H]2OC[C@@H](O)[C@H](O[C@H]3OC[C@](O)(CO)[C@H]3O)[C@H]2O)[C@@H](O)[C@H]1O)OC(=O)CC(O)CC(O[C@@H]1O[C@@H](CO)[C@H](O)[C@H]1O)C(C)CC` (stereo partly drawn) [QS-21, Quillaja saponaria saponin 21], the “erythema and induration at the injection site” value ([1]; most patients) is listed as 2-10 cm and the dose-limiting toxicity [1] is listed as “No dose-limiting toxicity”.

For “polyinosinic: polycytidylic acid [poly (I:C)]”, the safety [2] was “can effectively improve its safety”.

— US20250325655A1, “VACCINE ADJUVANT, AND PREPARATION METHOD THEREFOR AND USE THEREOF” (CHENGDU MAXVAX BIOTECHNOLOGY LLC, priority 2021, published 2025)
